Test results reported in US4575560A, “Insecticidal diaminoguanidine hydrazone compounds” (American Cyanamid Company, priority 1985, dated 1986).

Experiments:
Southern Armyworm = assay: Southern armyworm test, third-instar larvae on treated Sieva lima bean leaves; format: in vivo, Spodoptera eridania (Cramer); settings: third-instar larvae
Description: Test formulations and procedures used for evaluation are as follows:
A. 100 mg of the test material is weighed, placed in a funnel over a 113 g narrow-mouth bottle, rinsed into the bottle with a 35 mL scoop of acetone, followed by a 35 mL scoop of water and another 35 mL scoop of acetone to yield 1000 ppm in 65% acetone. If the material is not soluble, it is broken up with a glass rod and used as a suspension.
B. This stock solution ("A") is used to make 300 ppm solutions or suspensions by pipetting 30 mL of "A" into a bottle containing 70 mL of 50% acetone to yield 300 ppm. Further dilutions in 50% acetone are made as required.
C. Tests requiring 10 ppm acetone solutions: 1 mL of "A" is pipetted into 99 mL of acetone to yield 10 ppm. Additional dilutions are made using 50% acetone as required.
Southern Armyworm--Spodoptera eridania (Cramer)
A Sieva lima bean plant with just the primary leaves expanded to 1.91 cm is dipped for three seconds with agitation in the "A" solution of 1000 ppm and set in the hood to dry. Following this, one leaf is placed in a 9 cm petri dish which has a moist filter paper in the bottom and 10 third-instar armyworm larvae about 1 cm long. This dish is covered and held at 80° F., and 50% r.h. After two days, mortality counts and estimates of the amount of feeding are made. Compounds showing partial kill and/or inhibition of feeding are held for an extra day for further observations.
All compounds showing activity as defined above are retested, using the second leaf on the bean plant, after an interval of seven days from original treatment, as an assay of residual activity.

[1] = tested on: Tobacco Budworm 3rd Instar; assay: Tobacco budworm secondary test, third-instar larvae on treated cotton cotyledons; format: in vivo, Heliothis virescens (Fabricus)
Description: Tobacco Budworm--Heliothis virescens (Fabricus)
Three cotton plants with just expanded cotyledons are dipped in 1000 ppm solution and placed in the hood to dry. When dry, each cotyledon is cut in half, and 10 are each placed in a 28 g plastic medicine cup containing a 1.25 cm dental wick saturated with water, and one third-instar budworm larva is added. The cup is capped and held for three days at 80° F., 50% relative humidity, after which mortality counts are made.

With `N=C(NN=Cc1ccc(Br)cc1)NN=Cc1ccc(OC(F)(F)C(F)F)cc1` [Br / HCF2 CF2 O / B] the “Mortality Rating Southern Armyworm” value (Southern Armyworm; 100 ppm) was 9 (100%), the “Mortality Rating Southern Armyworm” value (Southern Armyworm; 1000 ppm) was 9 (100%) and the “Mortality Rating Tobacco Budworm 3rd Instar” value ([1]; 1000 ppm) was 0 (No effect). For the same molecule, the “reduced feeding (R) Tobacco Budworm 3rd Instar” value (“reduced feeding” below) ([1]; 1000 ppm) was “R”.
`N=C(NN=Cc1ccc(Br)cc1)NN=Cc1ccc(C(F)(F)F)cc1` [CF3 / Br / B] was tested, and the “Mortality Rating Southern Armyworm” value (Southern Armyworm; 10 ppm) was 9 (100%), the “Mortality Rating Southern Armyworm” value (Southern Armyworm; 100 ppm) was 9 (100%) and the “Mortality Rating Southern Armyworm” value (Southern Armyworm; 1000 ppm) was 9 (100%). For the same molecule, the “Mortality Rating Tobacco Budworm 3rd Instar” value ([1]; 1000 ppm) was 0 (No effect) and the “reduced feeding” value ([1]; 1000 ppm) was “R”.
In the case of `N=C(NN=Cc1ccc(Br)cc1)NN=Cc1ccc(C(F)(F)F)cc1` [CF3 / Br / S], the “Mortality Rating Southern Armyworm” value (Southern Armyworm; 10 ppm) was 0 (No effect), the “Mortality Rating Southern Armyworm” value (Southern Armyworm; 1000 ppm) was 9 (100%) and the “Mortality Rating Tobacco Budworm 3rd Instar” value ([1]; 100 ppm) was 0 (No effect). For the same molecule, the “reduced feeding” value ([1]; 100 ppm) was “R”, the “Mortality Rating Tobacco Budworm 3rd Instar” value ([1]; 1000 ppm) was 0 (No effect) and the “reduced feeding” value ([1]; 1000 ppm) was “R”.
With `CCCOC(=O)N(N=Cc1ccc(C(F)(F)F)cc1)C(=N)NN=Cc1ccc(C(F)(F)F)cc1` [CF3 / CF3 / -n-C3 H7] the “Mortality Rating Southern Armyworm” value (Southern Armyworm; 10 ppm) was 4 (46-55%), the “Mortality Rating Southern Armyworm” value (Southern Armyworm; 100 ppm) was 9 (100%) and the “Mortality Rating Southern Armyworm” value (Southern Armyworm; 1000 ppm) was 9 (100%). For the same molecule, the “Mortality Rating Tobacco Budworm 3rd Instar” value ([1]; 1000 ppm) was 0 (No effect).
In the case of `CCCCOC(=O)N(N=Cc1ccc(C(F)(F)F)cc1)C(=N)NN=Cc1ccc(C(F)(F)F)cc1` [CF3 / CF3 / -n-C4 H9], the “Mortality Rating Southern Armyworm” value (Southern Armyworm; 100 ppm) was 0 (No effect), the “Mortality Rating Southern Armyworm” value (Southern Armyworm; 1000 ppm) was 9 (100%) and the “Mortality Rating Tobacco Budworm 3rd Instar” value ([1]; 1000 ppm) was 0 (No effect).
In the case of `N=C(NN=Cc1ccc(C(F)(F)F)cc1)N(N=Cc1ccc(C(F)(F)F)cc1)C(=O)OCCBr` [CF3 / CF3 / BrCH2 CH2], the “Mortality Rating Southern Armyworm” value (Southern Armyworm; 10 ppm) was 0 (No effect), the “Mortality Rating Southern Armyworm” value (Southern Armyworm; 100 ppm) was 0 (No effect) and the “Mortality Rating Southern Armyworm” value (Southern Armyworm; 1000 ppm) was 9 (100%). The “Mortality Rating Tobacco Budworm 3rd Instar” value ([1]; 1000 ppm) was 0 (No effect).
`CCOC(=O)N(N=Cc1ccc(C(F)(F)F)cc1)C(=N)NN=Cc1ccc(C(F)(F)F)cc1` [CF3 / CF3 / C2 H5, 3-[p-(trifluoromethyl)benzylidene]-2-{{[p-(trifluoromethyl)benzylidene]amino}amidino}carbazate] was tested, and the “Mortality Rating Southern Armyworm” value (Southern Armyworm; 10 ppm) was 9 (100%), the “Mortality Rating Southern Armyworm” value (Southern Armyworm; 100 ppm) was 7 (76-85%) and the “Mortality Rating Southern Armyworm” value (Southern Armyworm; 1000 ppm) was 9 (100%).
In the case of `C=CCOC(=O)N(N=Cc1ccc(C(F)(F)F)cc1)C(=N)NN=Cc1ccc(C(F)(F)F)cc1` [CF3 / CF3 / CH2CHCH2], the “Mortality Rating Southern Armyworm” value (Southern Armyworm; 10 ppm) was 0 (No effect), the “Mortality Rating Southern Armyworm” value (Southern Armyworm; 100 ppm) was 9 (100%) and the “Mortality Rating Southern Armyworm” value (Southern Armyworm; 1000 ppm) was 9 (100%). For the same molecule, the “Mortality Rating Tobacco Budworm 3rd Instar” value ([1]; 100 ppm) was 0 (No effect), the “Mortality Rating Tobacco Budworm 3rd Instar” value ([1]; 1000 ppm) was 0 (No effect) and the “reduced feeding” value ([1]; 1000 ppm) was “R”.
With `COC(=O)N(N=Cc1ccc(C(F)(F)F)cc1)C(=N)NN=Cc1ccc(C(F)(F)F)cc1` [CF3 / CF3 / CH3] the “Mortality Rating Southern Armyworm” value (Southern Armyworm; 10 ppm) was 3 (36-45%), the “Mortality Rating Southern Armyworm” value (Southern Armyworm; 100 ppm) was 9 (100%) and the “Mortality Rating Southern Armyworm” value (Southern Armyworm; 1000 ppm) was 9 (100%). For the same molecule, the “Mortality Rating Tobacco Budworm 3rd Instar” value ([1]; 1000 ppm) was 6 (66-75%).
In the case of `CC(C)(OC(=O)N(N=Cc1ccc(C(F)(F)F)cc1)C(=N)NN=Cc1ccc(C(F)(F)F)cc1)C(Cl)(Cl)Cl` [CF3 / CF3 / Cl3 CC(CH3)2], the “Mortality Rating Southern Armyworm” value (Southern Armyworm; 10 ppm) was 0 (No effect), the “Mortality Rating Southern Armyworm” value (Southern Armyworm; 100 ppm) was 9 (100%) and the “Mortality Rating Southern Armyworm” value (Southern Armyworm; 1000 ppm) was 9 (100%). For the same molecule, the “Mortality Rating Tobacco Budworm 3rd Instar” value ([1]; 10 ppm) was 0 (No effect), the “Mortality Rating Tobacco Budworm 3rd Instar” value ([1]; 100 ppm) was 0 (No effect) and the “reduced feeding” value ([1]; 100 ppm) was “R”. For the same molecule, the “Mortality Rating Tobacco Budworm 3rd Instar” value ([1]; 1000 ppm) was 9 (100%).
`N=C(NN=Cc1ccc(C(F)(F)F)cc1)N(N=Cc1ccc(C(F)(F)F)cc1)C(=O)OCC(Cl)(Cl)Cl` [CF3 / CF3 / Cl3 CCH2] was tested, and the “Mortality Rating Southern Armyworm” value (Southern Armyworm; 10 ppm) was 8 (86-99%), the “Mortality Rating Southern Armyworm” value (Southern Armyworm; 100 ppm) was 9 (100%) and the “Mortality Rating Southern Armyworm” value (Southern Armyworm; 1000 ppm) was 9 (100%). For the same molecule, the “Mortality Rating Tobacco Budworm 3rd Instar” value ([1]; 10 ppm) was 0 (No effect), the “Mortality Rating Tobacco Budworm 3rd Instar” value ([1]; 100 ppm) was 0 (No effect) and the “reduced feeding” value ([1]; 100 ppm) was “R”. The “Mortality Rating Tobacco Budworm 3rd Instar” value ([1]; 1000 ppm) was 8 (86-99%).
For `N=C(NN=Cc1ccc(C(F)(F)F)cc1)N(N=Cc1ccc(C(F)(F)F)cc1)C(=O)OCCCl` [CF3 / CF3 / ClCH2 CH2, 3-[p-(trifluoromethyl)benzylidene]-2-{{[p-(trifluoromethyl)benzylidene]amino}amidino}carbazate ester], the “Mortality Rating Southern Armyworm” value (Southern Armyworm; 10 ppm) was 8 (86-99%), the “Mortality Rating Southern Armyworm” value (Southern Armyworm; 100 ppm) was 9 (100%) and the “Mortality Rating Southern Armyworm” value (Southern Armyworm; 1000 ppm) was 9 (100%). For the same molecule, the “Mortality Rating Tobacco Budworm 3rd Instar” value ([1]; 100 ppm) was 0 (No effect), the “Mortality Rating Tobacco Budworm 3rd Instar” value ([1]; 1000 ppm) was 2 (26-35%) and the “reduced feeding” value ([1]; 1000 ppm) was “R”.
In the case of `CCC(C)OC(=O)N(N=Cc1ccc(C(F)(F)F)cc1)C(=N)NN=Cc1ccc(C(F)(F)F)cc1` (stereo not shown) [CF3 / CF3 / drawing 54], the “Mortality Rating Southern Armyworm” value (Southern Armyworm; 10 ppm) was 6 (66-75%), the “Mortality Rating Southern Armyworm” value (Southern Armyworm; 100 ppm) was 9 (100%) and the “Mortality Rating Southern Armyworm” value (Southern Armyworm; 1000 ppm) was 9 (100%). For the same molecule, the “Mortality Rating Tobacco Budworm 3rd Instar” value ([1]; 100 ppm) was 0 (No effect), the “reduced feeding” value ([1]; 100 ppm) was “R” and the “Mortality Rating Tobacco Budworm 3rd Instar” value ([1]; 1000 ppm) was 6 (66-75%). The “reduced feeding” value ([1]; 1000 ppm) was “R”.
In the case of `N=C(NN=Cc1ccc(Cl)cc1)NN=Cc1ccc(C(F)(F)F)cc1` [CF3 / Cl / B], the “Mortality Rating Southern Armyworm” value (Southern Armyworm; 100 ppm) was 9 (100%), the “Mortality Rating Southern Armyworm” value (Southern Armyworm; 1000 ppm) was 9 (100%) and the “Mortality Rating Tobacco Budworm 3rd Instar” value ([1]; 10 ppm) was 0 (No effect). The “Mortality Rating Tobacco Budworm 3rd Instar” value ([1]; 100 ppm) was 0 (No effect), the “reduced feeding” value ([1]; 100 ppm) was “R” and the “Mortality Rating Tobacco Budworm 3rd Instar” value ([1]; 1000 ppm) was 4 (46-55%). For the same molecule, the “reduced feeding” value ([1]; 1000 ppm) was “R”.
With `N=C(NN=Cc1ccc(OC(F)(F)C(F)F)cc1)NN=Cc1ccc(C(F)(F)F)cc1` [CF3 / HCF2 CF2 O / B, 1-{[p-(1,1,2,2-tetrafluoroethoxy)benzylidene]amino}-3-{[p-(trifluoromethyl)benzylidene]amino}guanidine] the “Mortality Rating Southern Armyworm” value (Southern Armyworm; 100 ppm) was 9 (100%), the “Mortality Rating Southern Armyworm” value (Southern Armyworm; 1000 ppm) was 9 (100%) and the “Mortality Rating Tobacco Budworm 3rd Instar” value ([1]; 1000 ppm) was 3 (36-45%).
`N=C(NN=Cc1ccc(OCC(F)(F)F)cc1)NN=Cc1ccc(OCC(F)(F)F)cc1` [CF3 CH2 / S] was tested, and the “Mortality Rating Southern Armyworm” value (Southern Armyworm; 10 ppm) was 6 (66-75%), the “Mortality Rating Southern Armyworm” value (Southern Armyworm; 100 ppm) was 8 (86-99%) and the “Mortality Rating Southern Armyworm” value (Southern Armyworm; 1000 ppm) was 9 (100%). For the same molecule, the “Mortality Rating Tobacco Budworm 3rd Instar” value ([1]; 100 ppm) was 0 (No effect), the “Mortality Rating Tobacco Budworm 3rd Instar” value ([1]; 1000 ppm) was 0 (No effect) and the “reduced feeding” value ([1]; 1000 ppm) was “R”.
In the case of `N=C(NN=Cc1ccc(OCC(F)(F)F)cc1)NN=Cc1ccc(OCC(F)(F)F)cc1` [CF3 CH2 O / B], the “Mortality Rating Southern Armyworm” value (Southern Armyworm; 100 ppm) was 0 (No effect), the “Mortality Rating Southern Armyworm” value (Southern Armyworm; 1000 ppm) was 4 (46-55%) and the “Mortality Rating Tobacco Budworm 3rd Instar” value ([1]; 100 ppm) was 0 (No effect). For the same molecule, the “Mortality Rating Tobacco Budworm 3rd Instar” value ([1]; 1000 ppm) was 0 (No effect) and the “reduced feeding” value ([1]; 1000 ppm) was “R”.
For `CCOC(=O)N(N=Cc1ccc(Cl)cc1)C(=N)NN=Cc1ccc(Cl)cc1` [Cl / Cl / C2 H5], the “Mortality Rating Southern Armyworm” value (Southern Armyworm; 100 ppm) was 9 (100%) and the “Mortality Rating Southern Armyworm” value (Southern Armyworm; 1000 ppm) was 8 (86-99%).
With `N=C(NN=Cc1ccc(Cl)cc1)NN=Cc1ccc(OC(F)(F)C(F)F)cc1` [Cl / HCF2 CF2 O / S] the “Mortality Rating Tobacco Budworm 3rd Instar” value ([1]; 1000 ppm) was 0 (No effect) and the “reduced feeding” value ([1]; 1000 ppm) was “R”.
In the case of `COC(=O)N(N=Cc1ccc(OC(F)(F)C(F)F)cc1)C(=N)NN=Cc1ccc(OC(F)(F)C(F)F)cc1` [HCF2 CF2 O / HCF2 CF2 O / CH3], the “Mortality Rating Southern Armyworm” value (Southern Armyworm; 100 ppm) was 9 (100%) and the “Mortality Rating Southern Armyworm” value (Southern Armyworm; 1000 ppm) was 9 (100%).
`N=C(NN=Cc1ccc(SC(F)(F)C(F)F)cc1)NN=Cc1ccc(SC(F)(F)C(F)F)cc1` [HCF2 CF2 S / S] was tested, and the “Mortality Rating Southern Armyworm” value (Southern Armyworm; 10 ppm) was 6 (66-75%).
